Data published in patent US20220235029A1, “CRYSTAL FORM OF C-MET/AXL INHIBITOR” (MEDSHINE DISCOVERY INC., priority 2019, published 2022).

Legend:
[1] = test system: human Hs746t gastric cancer cell xenograft tumor model; assay: In vivo pharmacodynamic study, Hs746t gastric cancer cell xenograft tumor model; design: species or system BALB/c nude mice; details: for Tumor volume (mm^3) (20th day): average value ± SEM, Hs746t xenograft in BALB/c nude mice; for T/C (%) / TGI (%): calculated based on the tumor volume on the 21st day after administration
Description: Human gastric cancer HS 746T cells were cultured in a single layer in vitro. The culturing condition was DMEM medium supplemented with 10% fetal bovine serum, 100 U/mL penicillin and […] in 37° C., 5% CO2 incubator. Digestion and passage treatment with trypsin-EDTA was carried out twice a week. When the cell saturation was 80%-90% and the number reached the required level, the cells were collected, counted and seeded.
BALB/c nude mice, male. 6-8 weeks old, weighting 18-22 g.
0.2 mL (2×10^6, cells:Matrigel=1:1) HS 746T cells were inoculated subcutaneously on the right back of each mouse. The drug was administered in groups when the average tumor volume reached approximately 100-150 mm^3.
Experimental index: The experimental index was whether the tumor growth was inhibited, delayed or cured. The diameters of the tumor were measured twice a week using a vernier caliper. The formula for calculating the tumor volume is V=0.5a×b^2, a and b represent the long and short diameters of the tumor respectively. The antitumor effect (TGI) of the compound was evaluated by T-C (days) and T/C (%).

[2] = test system: MKN45 gastric cancer cell line; assay: Cell proliferation inhibition experiment (CellTiter-Glo); type: cell-based
Description: Reagents and Consumables:
The cell plates were incubated in a carbon dioxide incubator for 3 days.

[3] = Study on the hygroscopicity (DVS detection); type: physicochemical; details: 25° C./80% RH
Description: Dynamic Vapor Sorption (DVS) Instrument in the Present Disclosure
Instrument model: DVS Advantage-1 (SMS)
Detection condition: about 10-15 mg of the sample was used for DVS detection.
Equilibrium: dm/dt=0.01%/min: (time: 10 min, longest: 180 min)
RH (%) gradient for testing: 10%
RH (%) gradient range for testing: 0%-90%-0%
The hygroscopicity was evaluated using the judgment criterias in the following Table 6: […]

Compound | Tumor volume (mm^3) (20th day) [1] | T/C (%) [1] | TGI (%) [1] | inhibitory activity on MKN45 cell (in words) [2] | Classification of hygroscopicity [3] | Hygroscopic weight gain at 25/80% RH [3] | tumor inhibitory effect (in words) ([1]; Hs746t gastric cancer cell xenograft tumor model)
CCOc1ccn(-c2ccc(F)cc2)c(=O)c1C(=O)Nc1ccc(Oc2ccnc(N)c2Cl)c(F)c1 [BMS777607] | 1872 ± 355 mm^3 | 27.61% | 73.58% |  |  |  | 
Cc1ccc(C(=O)Nc2ccc(Oc3cc4cnn(C)c4cc3-c3cn[nH]c3)c(F)c2)c(=O)n1-c1ccc(F)cc1 [LY2801653] | 88 ± 13 mm^3 | 101.62% | 3.45% |  |  |  | 
CN(C)C(=O)Nc1cc(Oc2ccc(NC(=O)c3cn(CC4CC4)c(=O)n(-c4ccc(F)cc4)c3=O)cc2F)ccn1 |  |  |  | good inhibitory activity | slightly hygroscopic | 0.2801% | 
CN(C)C(=O)Nc1cc(Oc2ccc(NC(=O)c3cn(CC4CC4)c(=O)n(-c4ccc(F)cc4)c3=O)cc2F)ccn1.Cc1ccc(S(=O)(=O)O)cc1 |  |  |  |  | slightly hygroscopic | 0.999% | 
CN(C)C(=O)Nc1cc(Oc2ccc(NC(=O)c3cn(CC4CC4)c(=O)n(-c4ccc(F)cc4)c3=O)cc2F)ccn1 [Compound represented by formula (I)] | 4 ± 2 mm^3 | 104.82% | 0.15% |  |  |  | better tumor inhibitory effect than BMS777607 and LY2801653
